# Measured values: patent publication US11925623B2 (priority 2020, dated 2024)
# “Also recorded” adds a separate entry of the source.
# Test system: SH-SY-5Y cells
# Assay: In vitro amyloid toxicity protection assay (CCK-8)
# Type: cell-based
# Method: SH-SY-5Y cells were seeded at a density of 20000/well in a 96-well plate and incubated overnight at 37° C. Following day, cells were treated with media according to their respective treatment group in triplicate. Vehicle-only treated cells are used as control groups. […] On day 3, Cells were incubated with media containing CCK-8 (<10%). After 3 hours of incubation, the absorbance is measured at 450 nm (reference wavelength 600 nm) using Me5 plate reader (Spectramax). The final volume in a well is kept at 100 μL CCK-8 (CK04, Dojindo labs) in this assay.
smiles,measurement,setting,value
O=C(O)C1(O)CSC(O)(C(=O)O)CS1 (stereo not drawn) [sulfanegen],protection against Aβ1-42 reduction in cell viability,"SH-SY-5Y, 20 μM Aβ1-42, CCK-8",prevented; also recorded: high protective effect
same,cell growth,"SH-SY-5Y, with 20 μM Aβ1-42","increase in cell growth, even above the control levels"
same,dose above which protective effect appears saturated,no difference at higher 500 μM dose,above 350 μM
